Results reported in patent publication US20120220658A1, “Method for Treating Sepsis or Septic Shock” (University of Medicine and Dentistry of New Jersey, priority 2009, published 2012).
Entries after “also recorded” stand apart in the source; their conditions may differ.

Legend:
[1] = test system: bacterial load in CLP rats; assay: Bacterial load (CFU) in blood and peritoneal lavage fluid after CLP; format: in vivo, male Sprague-Dawley rats; details: 40 μg/kg i.p. 5 h after CLP; 48 hours after CLP; vs saline vehicle
Method: (§1) Surgery. Cecal ligation and perforation (CLP) was performed on male Sprague-Dawley rats (250-350 g) according to known methods (Chaudry, et al. (1979) Surgery 85:205-21). The CLP model of sepsis is an established, clinically relevant model of sepsis (Rittirsch et al., (2009) Nature Protocol 4(1):31-36). Animals were fasted overnight before surgery. On the day of surgery, rats were anesthetized with Isofluorane (+oxygen). A 2-cm-long midline incision was made in the abdomen to expose the cecum. Fecal matter was massaged into the cecum. The distal two-thirds of the cecum was ligated with 4.0 surgical silk. Using an 18-gauge needle, the cecum was punctured twice. Some fecal matter was massaged out of the cecum through these holes. The cecum was placed back into the abdomen, which was then closed. Saline (2 ml/100 g; s.c.) was injected to replace any fluids lost during surgery. Five hours after surgery, the rats were given either LXA4 (40 μg/kg rat; i.p.) or saline vehicle. This concentration of LXA4 was derived from published in vivo work in rodents (Bannenberg et al., (2004) Br. J. Pharmacol. 143:43-52). […]
Bacterial Load. […] At the end of the incubation period, colony forming units (CFU) were counted.
Bacterial Load. Bacterial load in blood and peritoneal lavage fluid was measured after plating of serially diluted samples on tryptic soy agar plates. […]

CLP rats [2] = assay: Survival after CLP-induced sepsis, intravenous LXA4; format: in vivo; details: 8 μg/kg i.v., single dose 1 hour after CLP; monitored every 24 hours for 8 days
Method: as §1
To further examine the use of LXA4 in the treatment of sepsis, the effect intravenous LXA4 administration on survival after CLP-induced sepsis was examined. […] Survival was monitored every 24 hours for 8 days (FIG. 7).

IL-10 = assay: Plasma IL-10 level after CLP; format: in vivo, male Sprague-Dawley rats; details: 40 μg/kg i.p. 5 h after CLP; 48 hours after CLP; vs saline vehicle
Method: as §1, with “143:43-52). At the end of 48 hours, rats were anesthetized with pentobarbital (50 mg/kg, i.p.).” for “143:43-52).”
(§2) Plasma IL-6, MCP-1 and IL-10 Levels. Plasma IL-6, MCP-1 and IL-10 levels were measured using commercially available kits. […]

MCP-1 = assay: Plasma MCP-1 level after CLP; format: in vivo, male Sprague-Dawley rats; details: 40 μg/kg i.p. 5 h after CLP; 48 hours after CLP; vs saline vehicle
Method: as §1
Plasma IL-6, MCP-1 and IL-10 Levels. Plasma IL-6, MCP-1 and IL-10 levels were measured using commercially available kits.
Plasma MCP-1. […] Accordingly, plasma MCP-1 was measured as another marker of systemic inflammatory response. […]

IL-6 = assay: Plasma IL-6 level after CLP; format: in vivo, male Sprague-Dawley rats; details: 40 μg/kg i.p. 5 h after CLP; 48 hours after CLP; vs saline vehicle
Method: as §1, with “143:43-52). At the end of 48 hours, rats were anesthetized with pentobarbital (50 mg/kg, i.p.).” for “143:43-52).”
as §2

[3] = test system: peritoneal leukocytes of CLP rats; assay: Peritoneal cell count and differential after CLP; format: in vivo, male Sprague-Dawley rats; details: 40 μg/kg i.p. 5 h after CLP; 48 hours after CLP; vs CLP rats given saline
Method: Surgery. Cecal ligation and perforation (CLP) was performed on male Sprague-Dawley rats (250-350 g) according to known methods (Chaudry, et al. (1979) Surgery 85:205-21). The CLP model of sepsis is an established, clinically relevant model of sepsis (Rittirsch et al., (2009) Nature Protocol 4(1):31-36). Animals were fasted overnight before surgery. On the day of surgery, rats were anesthetized with Isofluorane (+oxygen). A 2-cm-long midline incision was made in the abdomen to expose the cecum. Fecal matter was massaged into the cecum. The distal two-thirds of the cecum was ligated with 4.0 surgical silk. Using an 18-gauge needle, the cecum was punctured twice. Some fecal matter was massaged out of the cecum through these holes. The cecum was placed back into the abdomen, which was then closed. Saline (2 ml/100 g; s.c.) was injected to replace any fluids lost during surgery. Five hours after surgery, the rats were given either LXA4 (40 μg/kg rat; i.p.) or saline vehicle. This concentration of LXA4 was derived from published in vivo work in rodents (Bannenberg et al., (2004) Br. J. Pharmacol. 143:43-52). At the end of 48 hours, rats were anesthetized with pentobarbital (50 mg/kg, i.p.). A midline incision was made and the peritoneal cavity was lavaged with 20 ml of PBS containing 0.38% Na citrate (as anticoagulant).
Two hundred μl of lavage fluid was taken immediately for measurement of bacterial load. The rest of the fluid was passed through a […] (diameter) nylon mesh to remove debris and then centrifuged at 110×g for 7 minutes at 4° C. The supernatant was removed and stored at −80° C. for further analyses. Forty ml red blood cell lysis buffer was added to the cell pellet for 10 minutes with gentle inversion before being centrifuged again at 110×g (7 minutes; 4° C.). Cells were resuspended in 1 ml PBS.
Peritoneal Cell Differential. Peritoneal cells were counted using an automated hemocytometer (Beckman Coulter Counter; Z4) and then cytospun onto superfrost ++ slides. In order to perform cell differentials, DIFQUIK staining was performed according to manufacturer's instructions. […]

CLP rats [4] = assay: Survival in cecal ligation and perforation (CLP) model of sepsis, LXA4 i.p.; format: in vivo, male Sprague-Dawley rats; details: 40 μg/kg i.p. five hours after CLP surgery; subgroup of rats that lived longer than 48 hours; vs vehicle treated CLP rats
Method: as §1, with “vehicle.” for “vehicle. This concentration of LXA4 was derived from published in vivo work in rodents (Bannenberg et al., (2004) Br. J. Pharmacol. 143:43-52).”
In this study, the effect of LXA4 in the clinically relevant cecal ligation and puncture (CLP) model of sepsis was analyzed. […]
Survival. […] As there was a significant change in the slope of the individual survival curves starting at 48 hours, the effects of LXA4 on systemic inflammatory mediator release, bacterial load and peritoneal leukocyte counts 48 hours after CLP sepsis were analyzed.

CCCCC[C@H](O)/C=C/C=C\C=C\C=C\[C@@H](O)[C@@H](O)CCCC(=O)O [LXA4, 5S,6R,15S-trihydroxy-7E,9E,11Z,13E-Eicosatetraenoic acid]
bacterial load in the peritoneal cavity (CFU) [1]: reduced bacterial load in the peritoneal cavity but the reduction did not reach significance | blood bacterial load (CFU) [1]: reduces blood bacterial load; also recorded: substantially reduced blood bacterial load | survival (Kaplan-Meier, log rank test) (CLP rats [2]): significantly increased survival | plasma IL-10 levels (IL-10): significantly decreased plasma IL-10 levels | plasma MCP-1 levels (MCP-1): reduced plasma levels of MCP-1; also recorded: significantly reduced plasma MCP-1 levels | plasma IL-6 levels (IL-6): reduced plasma levels of IL-6 | number of monocytes/macrophages in the peritoneal cavity [3]: increased the number of monocytes/macrophages | number of neutrophils in the peritoneal cavity [3]: without affecting the number of neutrophils; also recorded: number of neutrophils remained similar in both groups | total number of peritoneal cells (leukocytes) [3]: increased the total number of peritoneal cells; also recorded: increased peritoneal leukocytes further | survival (Kaplan-Meier, log-rank test) (CLP rats [4]): significantly increased survival; also recorded: increased survival rate
